Values of other authors as cited in patent US20050205101A1, “Combined pharmocological and surgical method and system for the treatment of eye disorders” (priority 2002, published 2005).
Structures can show the parent of a compound that is named as a salt.

Experiments:
emmetropic eye = details: typical concentration of about 4%
[1] = tested on: intraocular pressure (IOP); details: used topically, elevated IOP; van Alphen 1976
presbyopic patient = details: presbyopia, administration to the eye; Neufeld US 5,488,050

SMILES: CC[C@@H]1C(=O)OC[C@@H]1Cc1cncn1C [Pilocarpine hydrochloride, pilocarpine hydrochloride]
- adverse side effect on refraction (emmetropic eye): becomes myopic
- near and distant vision (emmetropic eye): enhanced near vision but at the sacrifice of distant vision

SMILES: CC(C)(C)NC[C@H](O)COc1nsnc1N1CCOCC1 [Timolol]
- tonic accommodation (accommodation in humans; unfocused eyes, subjects with mean age of 23, Nyberg 1976): net increase in tonic accommodation
- intraocular pressure (IOP) [1]: lower the IOP
- vision of presbyopic subject (presbyopic patient): improved

SMILES: CC(C)NCC(O)COc1ccc(CCOCC2CC2)cc1 (centres unmarked) [betaxolol]
- intraocular pressure (IOP) [1]: lower the IOP

SMILES: CC(C)(C)NC[C@H](O)COc1cccc2c1CCCC2=O [levobunolol]
- intraocular pressure (IOP) [1]: lower the IOP

SMILES: CC(=O)Oc1cc(C(C)C)c(OCCN(C)C)cc1C [thymoxamine]
- gain in accommodation (accommodation in humans; treated subjects, Zetterstrom 1987): transient gain in accommodation
